Among the test systems are A498; A549; ACHN; COLO 205; DU-145; HCC 2998; HCT-116; HL-60; Hs-578T; MDA-MB-231; MOLT-4; NCI-H23; NCI-H460; RPMI-8226; SF-268; SK-MEL-28; SN12C; UO-31; SW-620.
Assay in all cases: NCI tumour cell line growth inhibition, 48 h

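Where inhibition never reached the appropriate level, the endpoint shown equals the highest concentration tested. Otherwise, values were interpolated linearly from a five-concentration, 48-hour dose response in 96-well plates. Here, GI50 denotes the concentration required for 50% inhibition of growth.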 Active and inactive are the calls of the source. No stated cut-off is given here; in the data, active = GI50 up to about 1.1 µM and inactive = higher.

The text below walks through data of ChEMBL document CHEMBL1201862, “PubChem BioAssay data set” (2004).

Regarding `O=[N+]([O-])C(/C=C(\Cl)[N+](=O)[O-])=C(N1CCCCC1)N1CCCCC1`, the GI50 in the assay with A498 is 41.4 µM (inactive); in the assay on A549, 15.6 µM (inactive); with ACHN, 48.9 µM (inactive); in the assay with COLO 205, 21.5 µM (inactive); in the assay on DU-145, 62.5 µM (inactive); with HCC 2998, 44.7 µM (inactive). For the same compound, the GI50 with HCT-116 was 21.7 µM (inactive); with HL-60 it was 20.1 µM (inactive); in the assay with Hs-578T it was 58.2 µM (inactive); in the assay on MDA-MB-231 it was 92 µM (inactive); in the assay with MOLT-4, 30.7 µM (inactive); with NCI-H23 it was 32.9 µM (inactive). Besides, the GI50 was 36.1 µM (inactive) in the assay with NCI-H460; 30.8 µM (inactive) in the assay with RPMI-8226; 51.2 µM (inactive) in the assay on SF-268; 70.8 µM (inactive) with SK-MEL-28; 45 µM (inactive) with SN12C; 21.3 µM (inactive) in the assay with UO-31.

Consider `C#CCCCOc1ncccn1`, for which the GI50 with A498, with A549, in the assay on ACHN, with COLO 205, in the assay with DU-145 and in the assay on HCC 2998 was > 100 µM (inactive) throughout. The GI50 in the assay with HCT-116, with HL-60, with Hs-578T, in the assay on MDA-MB-231, in the assay on MOLT-4 and in the assay with NCI-H23 was > 100 µM (inactive) each time. The GI50 with RPMI-8226, in the assay with SF-268, in the assay on SK-MEL-28, in the assay on SN12C, in the assay on SW-620 and with UO-31 was > 100 µM (inactive) throughout.

Take `CN(C)c1ccc(/C=C2\C[C@H]3[C@@H]4CCC5=CC(=O)CC[C@]5(C)[C@H]4CC[C@]3(C)C2=O)cc1`: the GI50 in the assay on A498 is 37.7 µM (inactive); with A549, 38 µM (inactive); in the assay on ACHN it was 29.4 µM (inactive); in the assay on COLO 205 it was 21.7 µM (inactive); in the assay on DU-145 it was 76.6 µM (inactive); in the assay with HCT-116, 24.7 µM (inactive). Besides, the GI50 with HL-60 was 17.2 µM (inactive); in the assay on Hs-578T it was 38.4 µM (inactive); with MDA-MB-231, 38.9 µM (inactive); in the assay with MOLT-4 it was 14.8 µM (inactive); in the assay on NCI-H23, 52.7 µM (inactive); in the assay on NCI-H460, 17.4 µM (inactive). Besides, the GI50 was 17.5 µM (inactive) in the assay with RPMI-8226; 46.3 µM (inactive) with SF-268; > 100 µM (inactive) in the assay on SK-MEL-28; 44.3 µM (inactive) with SN12C; 48.9 µM (inactive) in the assay with SW-620; 63.2 µM (inactive) in the assay on UO-31.

For `N#CCCN(CCC#N)c1ccc(/C=C2\N=C(c3ccccc3)N(c3ccc(C(=O)O)cc3)C2=O)cc1`, the GI50 in the assay on A498 was > 100 µM (inactive); in the assay with A549, > 100 µM (inactive); with ACHN, 42.5 µM (inactive); in the assay with COLO 205, 39 µM (inactive); with DU-145, 69.2 µM (inactive); in the assay on HCT-116, 33.7 µM (inactive). Moreover, the GI50 is > 10 µM (inactive) in the assay on HL-60; 22.3 µM (inactive) with Hs-578T; 52 µM (inactive) with MDA-MB-231; 0.641 µM (active) in the assay with MOLT-4; 27.6 µM (inactive) in the assay with NCI-H460; 46.8 µM (inactive) in the assay with RPMI-8226. Also, the GI50 with SF-268 is 21.1 µM (inactive); with SK-MEL-28, 36 µM (inactive); with SN12C, 70.1 µM (inactive); with SW-620, 21 µM (inactive); in the assay with UO-31 it was 77.1 µM (inactive).

Regarding `COc1ccc2[nH]c3c(c2c1)CC(=O)N1CCCC(CC3O)C1` (stereo not given), the GI50 in the assay on A498, with A549, in the assay on ACHN, in the assay with COLO 205, with DU-145 and in the assay on HCC 2998 was > 100 µM (inactive) each time. For the same compound, the GI50 in the assay with HCT-116, with Hs-578T, in the assay on MDA-MB-231, in the assay on NCI-H23, in the assay with NCI-H460 and in the assay with RPMI-8226 was > 100 µM (inactive) each time. The GI50 in the assay with SF-268, in the assay with SK-MEL-28, with SN12C, with SW-620 and with UO-31 was > 100 µM (inactive) throughout.

Regarding `CNC(=O)OCC1=C(COC(=O)NC)C(C)N(c2ccc(OC)cc2)C1` (stereo not given), the GI50 in the assay on A498 was 0.351 µM (active); in the assay on A549 it was > 100 µM (inactive); with ACHN it was 62.2 µM (inactive); in the assay on COLO 205, 59 µM (inactive); with DU-145, > 100 µM (inactive); with HCT-116, > 100 µM (inactive). Further, the GI50 in the assay on HL-60 is 23.8 µM (inactive); in the assay on Hs-578T it was > 100 µM (inactive); in the assay with MDA-MB-231, > 100 µM (inactive); with MOLT-4, 33.6 µM (inactive); in the assay with NCI-H23, 68.9 µM (inactive); with NCI-H460, 23 µM (inactive). Also, the GI50 in the assay on RPMI-8226 is 58.6 µM (inactive); with SF-268, > 100 µM (inactive); with SK-MEL-28, > 100 µM (inactive); with SN12C it was > 100 µM (inactive); in the assay with SW-620, > 100 µM (inactive); in the assay with UO-31, 41.6 µM (inactive).

As for `C=CC(Br)(CBr)CCC(Br)C(C)C` (stereo not given), the GI50 was 18.7 µM (inactive) in the assay on A498; 14.1 µM (inactive) in the assay on A549; 8.15 µM (inactive) with ACHN; 5.93 µM (inactive) in the assay with COLO 205; 8.55 µM (inactive) in the assay on DU-145; 5.57 µM (inactive) in the assay with HCT-116. The GI50 is 0.769 µM (active) in the assay with HL-60; 2.64 µM (inactive) in the assay on Hs-578T; 4.27 µM (inactive) in the assay on MDA-MB-231; 1.91 µM (inactive) in the assay with MOLT-4; 6.82 µM (inactive) in the assay on NCI-H23; 4.71 µM (inactive) with NCI-H460. Besides, the GI50 is 1.25 µM (inactive) in the assay with RPMI-8226; 5.48 µM (inactive) in the assay with SF-268; 3.49 µM (inactive) in the assay with SK-MEL-28; 10.7 µM (inactive) in the assay with SN12C; 2.2 µM (inactive) with SW-620; 13 µM (inactive) with UO-31.

Consider `CC(=O)Nc1cc(CN2CCCCC2)c(O)c2ncccc12`, for which the GI50 in the assay with A498 was 65.9 µM (inactive); in the assay with A549, 32.9 µM (inactive); with ACHN, 17.8 µM (inactive); in the assay with COLO 205, 49.7 µM (inactive); in the assay with DU-145 it was 6.75 µM (inactive); in the assay with HCT-116 it was 20.9 µM (inactive). The GI50 in the assay with HL-60 is 14.5 µM (inactive); with Hs-578T it was 67.3 µM (inactive); in the assay on MDA-MB-231, 15.8 µM (inactive); with MOLT-4, 10.1 µM (inactive); in the assay with NCI-H23, 40.7 µM (inactive); with NCI-H460, 11.7 µM (inactive). For the same compound, the GI50 was 12.1 µM (inactive) in the assay on RPMI-8226; 23.7 µM (inactive) in the assay with SF-268; 27.3 µM (inactive) in the assay on SK-MEL-28; 26 µM (inactive) with SN12C; 39.7 µM (inactive) with SW-620; 7.35 µM (inactive) with UO-31.

For `Clc1cccc(Cl)c1C(Nc1nncs1)Nc1nncs1`, the GI50 in the assay with A498 was 49.2 µM (inactive); in the assay with A549, 48.9 µM (inactive); in the assay with ACHN it was 73.6 µM (inactive); with COLO 205, 35.4 µM (inactive); with DU-145, 51.5 µM (inactive); in the assay with HCT-116, 28.6 µM (inactive). The GI50 with HL-60 was 17.3 µM (inactive); with Hs-578T it was 71.3 µM (inactive); with MDA-MB-231, > 100 µM (inactive); with MOLT-4, 17.3 µM (inactive); with NCI-H23 it was 40.2 µM (inactive); in the assay with NCI-H460, 25 µM (inactive). In addition, the GI50 was 46 µM (inactive) in the assay on RPMI-8226; 81.7 µM (inactive) with SF-268; 21.8 µM (inactive) with SK-MEL-28; 38.4 µM (inactive) in the assay with SN12C; 20.7 µM (inactive) with SW-620; 62.7 µM (inactive) with UO-31.

In the case of `O=C(O)c1cccc2cccc(-c3cccc4cccc(C(=O)O)c34)c12`, the GI50 in the assay with A498, with A549, with ACHN, in the assay with COLO 205, with DU-145 and in the assay with HCC 2998 was > 100 µM (inactive) each time. Further, the GI50 in the assay with HCT-116, in the assay on HL-60, in the assay on Hs-578T, in the assay on MDA-MB-231, in the assay on NCI-H23 and in the assay on NCI-H460 was > 100 µM (inactive) each time. For the same compound, the GI50 in the assay with SF-268, in the assay with SK-MEL-28, with SN12C, with SW-620 and with UO-31 was > 100 µM (inactive) throughout.

In the case of `C[C@]12CCC(=O)C=C1C[C@@H](O)[C@@H]1[C@@H]2CC[C@@]2(C)[C@H]1CC[C@]2(C)O`, the GI50 with A498, in the assay on A549, in the assay on ACHN, in the assay on COLO 205, in the assay with DU-145 and with HCC 2998 was > 100 µM (inactive) each time. Besides, the GI50 in the assay with HCT-116, in the assay with HL-60, in the assay on Hs-578T, in the assay on MDA-MB-231, with NCI-H23 and in the assay on NCI-H460 was > 100 µM (inactive) each time. Further, the GI50 with RPMI-8226, in the assay on SF-268, in the assay with SK-MEL-28, in the assay on SN12C, in the assay with SW-620 and in the assay on UO-31 was > 100 µM (inactive) in each case.
